Assay results from PubChem BioAssay AID504702 (Southern Research Specialized Biocontainment Screening …, 2011).
Values joined by “and” are separate entries in the source; they are usually repeats but may differ in a detail not shown here. Equal entries are not always repeated. Active and inactive are the calls of the source. No rule for the calls is given here.

Experiments:
[1] = M. tuberculosis growth inhibition with meropenem, dose response, H37Rv, set 2 (AID 504702);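 also: growth read by Alamar Blue after 7 days plus overnight incubation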; conditions: M. tuberculosis H37Rv with meropenem, growth inhibition
[2] = test system: M. tuberculosis H37Rv with meropenem, growth inhibition; experiment: as above; conditions: for IC90: measured here: IC90 growth with meropenem

SMILES	growth inhibition ([1]; at 25 µM (top of the series))	IC50 [2]	IC90 [2]	also measured
CCOc1ccc2nc(NC(=O)Cc3ccc(OC)cc3)sc2c1	-9.77% (inactive)			
c1ccc(Nc2ncnc3c2oc2ccccc23)cc1		5.29 µM	> 25 µM	
CCOC(=O)c1c(C)[nH]c2ccccc12	-5.69% (inactive)			
Cc1ccc(OCC(=O)Nc2ccc3c4c(cccc24)CC3)c(C)c1		0.91 µM and 6.11 µM	> 25 µM	
O=C(COc1ccc2c3c(c(=O)oc2c1)CCC3)Nc1nc2ccccc2[nH]1	-4.95% (inactive)			
CCOC(=O)COc1nc(-c2ccc(Cl)cc2)cc(-c2ccco2)c1C#N		6.8 µM and 4.07 µM	> 25 µM	
O=C(OC(C(=O)Nc1ccc(Cl)cc1C(F)(F)F)c1ccccc1)C1=COCCO1 (stereo unspecified)		3.17 µM	> 25 µM	
O=C(COc1ccc2ccccc2c1)Nc1nc2ccccc2[nH]1		8.87 µM	> 25 µM	
Cc1ccc(OCC(=O)Nc2cccc3c(NC(=O)COc4ccc(C)cc4C)cccc23)c(C)c1	-7.16% (inactive)			
Cc1ccc2oc(/N=C(\N)NC(=O)c3ccccc3)nc2c1	5.09% (inactive)			
Cc1ccc(OCC(=O)Nc2cccc3ccccc23)c(C)c1		20.5 µM	> 25 µM	
CC(=O)c1c(C)n(-c2ccccc2C)c2ccc(O)cc12	-1.1% (inactive)			
CCOc1ccc2nc(NC(=O)COc3ccc(F)cc3)sc2c1	-3.93% (inactive)			
Cc1cc2cc(Cl)ccc2[nH]1	0.31% (inactive)			
N/C(=N\c1nc2ccccc2o1)NC(=O)C1CC1	9.34% (inactive)			
O=C(COC(=O)C1CC1)c1c[nH]c2ccccc12		0.25 µM and 0.64 µM	> 25 µM	
CCC(CC)c1nnc(NC(=O)c2ccc(N3CCCCC3)c([N+](=O)[O-])c2)s1	2.49% (inactive)			
Cc1cc2ccccc2n1-c1ccccc1	-0.06% (inactive)			
CC(=O)c1c(C)n(-c2cccc(Cl)c2)c2ccc(O)cc12	-2.38% (inactive)			
O=C(COc1ccc(Cl)cc1)Nc1nc2ccc(F)cc2s1	-1.17% (inactive)			
CCOc1ccc2nc(NC(=O)C3(c4ccccc4)CCCC3)sc2c1		1.2 µM	4.16 µM	
COc1ccccc1C(=O)N/C(N)=N/c1nc2ccccc2o1	0.18% (inactive)			
OCCCc1cn(-c2ccccc2)c2ccccc12		14.2 µM	> 25 µM	
Cc1ccccc1OCC(=O)Nc1ncccn1	3.04% (inactive)			
CCOc1ccc2c(c1)c(C(C)=O)c(C)n2-c1ccccc1C		3.43 µM	12.1 µM	
O=C(Nc1nc2ccccc2[nH]1)c1cc2cc(Br)ccc2o1	-2.41% (inactive)			

SMILES	growth inhibition ([1]; at 25 µM (top of the series))	IC50 [2]	IC90 [2]	also measured
COc1ccc2nc(NC(=O)COc3ccccc3C(C)C)sc2c1	-2.44% (inactive)			
N/C(=N\c1nc2ccccc2o1)NC(=O)c1ccccc1F	-5.8% (inactive)			
O=C(CSc1n[nH]c(=O)n1C1CC1)c1ccc2c(c1)OCCO2		4.57 µM	> 25 µM	
Cc1ccc(C(C)C)c(OCC(=O)Nc2nc3ccccc3s2)c1	-4.96% (inactive)			
CCOC(=O)c1cnc2cc(-c3ccc(C(C)(C)C)cc3)nn2c1N			> 25 µM	
CC(=O)c1c(C)n(-c2ccccc2)c2ccc(OC(C)C)cc12	8.61% (inactive)			
CC(=O)c1c(C)n(-c2ccccc2)c2ccc(O)cc12		20.1 µM	> 25 µM	
Cc1cc(C)c(OCC(=O)Nc2nc3ccccc3s2)c(Cl)c1	-6.55% (inactive)			
Cc1ccc(OC(C)C(=O)Nc2ncccn2)c(C)c1 (stereo unspecified)	3.48% (inactive)			
Cc1cc(C)c(OCC(=O)Nc2nc3ccc(C)cc3s2)c(C)c1	-0.38% (inactive)			
COC(=O)c1c(C)[nH]c2ccc(Cl)cc12	-8.83% (inactive)			
CC(C)(C)c1ccc(OCC(=O)Nc2nc3ccccc3s2)cc1	-9.97% (inactive)			
Cc1cccnc1NC(=S)NC(=O)c1cncc(Br)c1		2.71 µM	> 25 µM	
CCOc1ccc2c(c1)c(C(C)=O)c(C)n2-c1ccccc1Cl		13.6 µM	> 25 µM	
O=C(Nc1ccccc1)Nc1csc2ccccc12		0.49 µM and 0.2 µM	> 25 µM	
O=C(COc1cccc2ccccc12)Nc1nc2ccccc2s1	-6.75% (inactive)			
CCOc1ccc2nc(NC(=O)c3cnccn3)sc2c1	20.9% (inactive)			growth inhibition ([1]; at 18.8 µM (top of the series)): -0.94% (inactive)
CN(NC(=O)c1c(Cl)cccc1Cl)c1cccc(Cl)n1		15.5 µM	> 25 µM	
Cc1cc2cc(O)ccc2[nH]1	1.86% (inactive)			
COc1ccc2c(c1)c(C(C)=O)c(C)n2-c1ccccc1		0.53 µM and 1.3 µM	> 18.8 µM	
COC(=O)c1c(C)[nH]c2ccccc12	-4.94% (inactive)			
Cc1cccc(C)c1OCC(=O)Nc1nc2ccc(Cl)cc2s1	-2.26% (inactive)			
COC(=O)c1c(C)n(-c2ccccc2)c2ccc(O)cc12		8.43 µM	> 18.8 µM	
Cc1cc2cc(F)ccc2[nH]1	1.92% (inactive)			
CC(=O)c1c(C)n(-c2ccccc2)c2ccccc12		11.6 µM	> 25 µM	
